Results from patent US20240024488A1, “COMPOUNDS AND USES THEREOF” (Foghorn Therapeutics Inc., priority 2020, published 2024).

Assays:
HiBit-BRM fusion protein = molecular target: T1, HiBit-BRM fusion protein (Homo sapiens, UniProt P51531); test: HiBiT-BRM cell-based degradation assay (Nano-Glo HiBiT Lytic Detection, 24 h); settings: HeLa cell line expressing HiBiT-BRM; for DC50: read-out: BRM HiBit Degradation IC50
T1 construct: expressed in transfected cells
Procedure, shortened: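 HeLa cells stably expressing HiBiT-BRM were dosed with compounds (10-point 3-fold dilutions, 30 μM final top dose, duplicate) for 24 h. HiBiT signal was read by lytic LgBiT complementation luminescence. Percent degradation was normalised to DMSO (high control) and 2 μM of a reference BRM/BRG1 degrader (low control).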

[1] = molecular target: T2, HiBit-BRG1 fusion protein (Homo sapiens, UniProt P51532); test: HiBiT-BRG1 cell-based degradation assay (Nano-Glo HiBiT Lytic Detection, 24 h); settings: HeLa cell line expressing HiBit-BRG1 and LgBit; for Dmax: read-out: BRG1 HiBit Degradation Maximum (%); for DC50: read-out: BRMG1 HiBit Degradation IC50
T2 construct: expressed in transfected cells
T2 sequence (P51532 whole entry, the tested form may be a part): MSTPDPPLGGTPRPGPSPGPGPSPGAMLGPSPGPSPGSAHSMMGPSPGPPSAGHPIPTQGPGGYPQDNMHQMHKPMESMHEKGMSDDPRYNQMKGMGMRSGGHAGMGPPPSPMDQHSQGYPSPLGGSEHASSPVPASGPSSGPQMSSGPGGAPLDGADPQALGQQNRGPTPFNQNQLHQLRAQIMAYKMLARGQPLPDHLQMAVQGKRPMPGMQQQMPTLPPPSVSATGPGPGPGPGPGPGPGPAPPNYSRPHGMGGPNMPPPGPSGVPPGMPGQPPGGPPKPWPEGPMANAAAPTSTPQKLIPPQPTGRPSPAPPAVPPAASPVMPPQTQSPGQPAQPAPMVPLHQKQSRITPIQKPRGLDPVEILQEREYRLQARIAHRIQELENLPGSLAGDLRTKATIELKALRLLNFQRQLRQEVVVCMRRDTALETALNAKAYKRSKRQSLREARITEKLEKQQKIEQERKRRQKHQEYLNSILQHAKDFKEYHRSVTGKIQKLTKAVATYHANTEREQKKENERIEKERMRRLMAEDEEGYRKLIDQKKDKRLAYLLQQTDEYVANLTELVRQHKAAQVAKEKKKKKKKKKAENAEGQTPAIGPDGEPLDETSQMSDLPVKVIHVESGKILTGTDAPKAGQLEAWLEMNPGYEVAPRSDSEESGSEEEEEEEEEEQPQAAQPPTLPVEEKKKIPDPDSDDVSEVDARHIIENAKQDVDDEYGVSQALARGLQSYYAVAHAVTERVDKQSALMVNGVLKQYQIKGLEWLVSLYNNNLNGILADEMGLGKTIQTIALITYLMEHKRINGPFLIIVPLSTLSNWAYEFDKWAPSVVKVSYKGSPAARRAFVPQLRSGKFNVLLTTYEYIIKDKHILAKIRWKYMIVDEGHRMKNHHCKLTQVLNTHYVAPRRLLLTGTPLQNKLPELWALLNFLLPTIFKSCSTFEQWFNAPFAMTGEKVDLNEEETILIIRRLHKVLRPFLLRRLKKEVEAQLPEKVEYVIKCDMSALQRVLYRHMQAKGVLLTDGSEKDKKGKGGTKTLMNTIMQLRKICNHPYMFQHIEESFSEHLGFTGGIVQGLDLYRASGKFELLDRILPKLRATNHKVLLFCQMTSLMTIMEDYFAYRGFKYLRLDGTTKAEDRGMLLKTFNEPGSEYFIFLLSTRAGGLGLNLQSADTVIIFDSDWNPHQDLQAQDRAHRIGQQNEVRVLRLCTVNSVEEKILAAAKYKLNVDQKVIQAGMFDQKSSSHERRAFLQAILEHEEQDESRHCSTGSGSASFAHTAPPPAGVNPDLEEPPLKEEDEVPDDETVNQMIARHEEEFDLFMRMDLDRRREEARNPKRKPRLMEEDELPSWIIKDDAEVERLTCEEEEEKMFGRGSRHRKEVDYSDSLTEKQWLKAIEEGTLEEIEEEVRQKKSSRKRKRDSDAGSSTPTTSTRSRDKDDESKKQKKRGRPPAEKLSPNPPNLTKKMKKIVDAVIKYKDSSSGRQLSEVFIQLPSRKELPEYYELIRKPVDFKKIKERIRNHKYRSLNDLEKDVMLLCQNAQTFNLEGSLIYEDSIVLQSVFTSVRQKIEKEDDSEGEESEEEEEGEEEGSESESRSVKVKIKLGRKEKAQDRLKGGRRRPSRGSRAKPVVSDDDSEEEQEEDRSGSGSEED
Procedure, shortened: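 Percent degradation derived from lytic HiBiT signal, normalized to DMSO-treated cells and to cells given 2 μM of a known BRM/BRG1 degrader. The HeLa line stably expressed HiBit-BRG1 and LgBit; treatment lasted 24 h at 5000 cells per well.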

T1 sequence (P51531 whole entry, the tested form may be a part): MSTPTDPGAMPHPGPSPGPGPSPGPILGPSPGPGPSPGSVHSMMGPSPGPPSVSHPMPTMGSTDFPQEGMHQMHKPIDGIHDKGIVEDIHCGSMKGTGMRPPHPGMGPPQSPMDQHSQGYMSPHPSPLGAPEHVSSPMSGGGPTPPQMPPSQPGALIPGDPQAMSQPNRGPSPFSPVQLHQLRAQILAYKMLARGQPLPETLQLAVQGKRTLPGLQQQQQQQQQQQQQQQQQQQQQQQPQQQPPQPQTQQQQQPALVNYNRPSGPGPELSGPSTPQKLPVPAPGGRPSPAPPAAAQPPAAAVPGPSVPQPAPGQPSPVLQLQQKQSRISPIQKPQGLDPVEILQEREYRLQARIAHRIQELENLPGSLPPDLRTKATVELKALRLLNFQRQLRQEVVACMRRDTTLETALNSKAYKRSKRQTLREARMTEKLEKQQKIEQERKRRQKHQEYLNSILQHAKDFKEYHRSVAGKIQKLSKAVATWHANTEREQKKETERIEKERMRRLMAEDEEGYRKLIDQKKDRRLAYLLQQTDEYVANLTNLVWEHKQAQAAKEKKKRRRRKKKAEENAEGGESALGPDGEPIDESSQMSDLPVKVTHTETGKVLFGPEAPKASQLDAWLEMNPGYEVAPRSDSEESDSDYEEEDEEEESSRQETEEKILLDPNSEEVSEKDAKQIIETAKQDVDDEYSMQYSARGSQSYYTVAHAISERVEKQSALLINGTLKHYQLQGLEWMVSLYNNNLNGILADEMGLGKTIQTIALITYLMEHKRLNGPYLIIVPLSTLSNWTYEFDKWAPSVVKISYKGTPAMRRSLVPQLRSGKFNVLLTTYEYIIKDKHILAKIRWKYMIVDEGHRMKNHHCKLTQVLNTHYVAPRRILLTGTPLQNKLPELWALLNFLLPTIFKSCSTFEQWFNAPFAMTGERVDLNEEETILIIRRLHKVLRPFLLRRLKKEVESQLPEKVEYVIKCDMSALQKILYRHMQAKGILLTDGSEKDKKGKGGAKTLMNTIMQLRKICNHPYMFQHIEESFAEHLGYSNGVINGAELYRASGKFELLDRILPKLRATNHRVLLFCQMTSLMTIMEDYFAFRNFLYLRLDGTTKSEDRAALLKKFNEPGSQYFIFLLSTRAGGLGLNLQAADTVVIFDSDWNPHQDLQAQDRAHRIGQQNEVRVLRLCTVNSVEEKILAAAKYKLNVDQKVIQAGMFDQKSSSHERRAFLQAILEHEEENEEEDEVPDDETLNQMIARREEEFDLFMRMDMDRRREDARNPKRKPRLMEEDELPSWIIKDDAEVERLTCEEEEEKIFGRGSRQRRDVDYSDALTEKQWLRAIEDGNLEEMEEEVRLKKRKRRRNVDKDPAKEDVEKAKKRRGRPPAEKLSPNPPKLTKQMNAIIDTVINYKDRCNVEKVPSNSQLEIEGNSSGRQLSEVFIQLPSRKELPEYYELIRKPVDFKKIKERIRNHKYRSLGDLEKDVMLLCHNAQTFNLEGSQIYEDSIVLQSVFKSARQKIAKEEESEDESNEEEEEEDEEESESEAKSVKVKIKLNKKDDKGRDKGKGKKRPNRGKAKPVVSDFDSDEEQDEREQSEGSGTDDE

| Dmax [1] | DC50 (HiBit-BRM fusion protein) | DC50 [1] | Compound | BRM HiBit Degradation Maximum (%) (HiBit-BRM fusion protein) |
| --- | --- | --- | --- | --- |
| < 50% | > 100 nM | – | Cc1ncsc1-c1ccc([C@H](C)NC(=O)[C@@H]2C[C@@H](O)CN2C(=O)[C@@H](c2cc(N3CCC(N4CCc5[nH]c6nnc(-c7ccccc7O)cc6c5C4)CC3)no2)C(C)C)cc1 (racemic) [Compound 183, (2S,4R)-4-hydroxy-1-((R)-2-(3-(4-(3-(2-hydroxyphenyl)-5,7,8,9-tetrahydro-6H-pyrido[3′,4′:4,5]pyrrolo[2,3-c]pyridazin-6-yl)piperidin-1-yl)isoxazol-5-yl)-3-methylbutanoyl)-N-((S)-1-(4-(4-methylthiazol-5-yl)phenyl)ethyl)pyrrolidine-2-carboxamide] | A (“A” indicates maximum degradation ≥ 75%) |
| > 75% | > 100 nM | > 1000 nM | Cc1ncsc1-c1ccc([C@H](C)NC(=O)[C@@H]2C[C@@H](O)CN2C(=O)[C@@H](c2cc(OCCN3CC(COc4c[nH]c5nnc(-c6ccccc6O)cc45)C3)no2)C(C)C)cc1 (racemic) [Compound 185, (2S,4R)-4-hydroxy-1-[(2R)-2-(3-{2-[3-{{[3-(2-hydroxyphenyl)-7H-pyrrolo[2,3-c]pyridazin-5-yl]oxy}methyl)azetidin-1-yl]ethoxy}-1,2-oxazol-5-yl)-3-methylbutanoyl]-N-[(1S)-1-[4-(4-methyl-1,3-thiazol-5-yl)phenyl]ethyl]pyrrolidine-2-carboxamide] | A (“A” indicates maximum degradation ≥ 75%) |
| > 75% | > 10 nM | > 100 nM | Cc1ncsc1-c1ccc([C@H](C)NC(=O)[C@@H]2C[C@@H](O)CN2C(=O)[C@@H](c2cc(OCCN3CC4(Cc5cc(-c6ccccc6O)nnc5N4)C3)no2)C(C)C)cc1 (racemic) [Compound 186, (2S,4R)-4-hydroxy-1-((R)-2-(3-(2-(3′-(2-hydroxyphenyl)-5′,7′-dihydrospiro[azetidine-3,6′-pyrrolo[2,3-c]pyridazin]-1-yl)ethoxy)isoxazol-5-yl)-3-methylbutanoyl)-N-((S)-1-(4-(4-methylthiazol-5-yl)phenyl)ethyl)pyrrolidine-2-carboxamide] | A (“A” indicates maximum degradation ≥ 75%) |
| < 50% | > 10 nM | – | Cc1ncsc1-c1ccc([C@H](C)NC(=O)[C@@H]2C[C@@H](O)CN2C(=O)[C@@H](c2cc(N3CCC(C(=O)N4CCc5[nH]c6nnc(-c7ccccc7O)cc6c5C4)CC3)no2)C(C)C)cc1 (racemic) [Compound 187, (2S,4R)-4-hydroxy-1-((R)-2-(3-(4-(3-(2-hydroxyphenyl)-6,7,8,9-tetrahydro-5H-pyrido[3′,4′:4,5]pyrrolo[2,3-c]pyridazine-6-carbonyl)piperidin-1-yl)isoxazol-5-yl)-3-methylbutanoyl)-N-((S)-1-(4-(4-methylthiazol-5-yl)phenyl)ethyl)pyrrolidine-2-carboxamide] | A (“A” indicates maximum degradation ≥ 75%) |

The next lines start with the compound.

| Compound | Dmax [1] | DC50 (HiBit-BRM fusion protein) | DC50 [1] | BRM HiBit Degradation Maximum (%) (HiBit-BRM fusion protein) |
| --- | --- | --- | --- | --- |
| Cc1ncsc1-c1ccc([C@H](C)NC(=O)[C@@H]2C[C@@H](O)CN2C(=O)[C@@H](c2cc(OCCN3CC(c4cc5cc(-c6ccccc6O)nnc5n4C)C3)no2)C(C)C)cc1 (racemic) [Compound 140, (2S,4R)-4-hydroxy-1-((R)-2-(3-(2-(3-(3-(2-hydroxyphenyl)-7-methyl-7H-pyrrolo[2,3-c]pyridazin-6-yl)azetidin-1-yl)ethoxy)isoxazol-5-yl)-3-methylbutanoyl)-N-((S)-1-(4-(4-methylthiazol-5-yl)phenyl)ethyl)pyrrolidine-2-carboxamide] | < 50% | – | – | C (“C” indicates maximum degradation < 50%) |
| Cc1ncsc1-c1ccc([C@H](C)NC(=O)[C@@H]2C[C@@H](O)CN2C(=O)[C@@H](c2cc(OCCN3C[C@@H]4[C@H](C3)[C@H]4c3cc4cc(-c5cccc(F)c5O)nnc4[nH]3)no2)C(C)C)cc1 (racemic) [Compound 142, (2S,4R)-1-((R)-2-(3-(2-((1R,5S,6R)-6-(3-(3-fluoro-2-hydroxyphenyl)-7H-pyrrolo[2,3-c]pyridazin-6-yl)-3-azabicyclo[3.1.0]hexan-3-yl)ethoxy)isoxazol-5-yl)-3-methylbutanoyl)-4-hydroxy-N-((S)-1-(4-(4-methylthiazol-5-yl)phenyl)ethyl)pyrrolidine-2-carboxamide] | < 50% | > 10 nM | – | A (“A” indicates maximum degradation ≥ 75%) |
| Cc1ncsc1-c1ccc([C@H](C)NC(=O)[C@@H]2C[C@@H](O)CN2C(=O)[C@@H](c2cc(OCCN3CC(c4cc5cc(-c6ccccc6O)nnc5n4C(F)F)C3)no2)C(C)C)cc1 (racemic) [Compound 148, (2S,4R)-1-[(2R)-2-[3-(2-{3-[7-(difluoromethyl)-3-(2-hydroxyphenyl)pyrrolo[2,3-c]pyridazin-6-yl]azetidin-1-yl}ethoxy)-1,2-oxazol-5-yl]-3-methylbutanoyl]-4-hydroxy-N-[(1S)-1-[4-(4-methyl-1,3-thiazol-5-yl)phenyl]ethyl]pyrrolidine-2-carboxamide] | < 50% | – | – | C (“C” indicates maximum degradation < 50%) |
| Cc1ncsc1-c1ccc([C@H](C)NC(=O)[C@@H]2C[C@@H](O)CN2C(=O)[C@H](c2cc(N(C)CCN3CCc4[nH]c5nnc(-c6ccccc6O)cc5c4C3)no2)C(C)C)cc1 (racemic) [Compound 149, (2S,4R)-4-hydroxy-1-((S)-2-(3-((2-(3-(2-hydroxyphenyl)-5,7,8,9-tetrahydro-6H-pyrido[3′,4′:4,5]pyrrolo[2,3-c]pyridazin-6-yl)ethyl)(methyl)amino)isoxazol-5-yl)-3-methylbutanoyl)-N-((S)-1-(4-(4-methylthiazol-5-yl)phenyl)ethyl)pyrrolidine-2-carboxamide] | < 50% | – | – | C (“C” indicates maximum degradation < 50%) |
| Cc1ncsc1-c1ccc([C@H](C)NC(=O)[C@@H]2C[C@@H](O)CN2C(=O)[C@@H](c2cc(OCCN3CCC34CC(c3c[nH]c5nnc(-c6ccccc6O)cc35)C4)no2)C(C)C)cc1 (mixture of isomers) [Compound 151, (2S,4R)-4-hydroxy-1-((R)-2-(3-(2-(6-(3-(2-hydroxyphenyl)-7H-pyrrolo[2,3-c]pyridazin-5-yl)-1-azaspiro[3.3]heptan-1-yl)ethoxy)isoxazol-5-yl)-3-methylbutanoyl)-N-((S)-1-(4-(4-methylthiazol-5-yl)phenyl)ethyl)pyrrolidine-2-carboxamide] | < 50% | > 100 nM | – | A (“A” indicates maximum degradation ≥ 75%) |
| Cc1ncsc1-c1ccc([C@H](C)NC(=O)[C@@H]2C[C@@H](O)CN2C(=O)[C@@H](c2cc(OCCN3CCC34CC(c3cc5cc(-c6ccccc6O)nnc5[nH]3)C4)no2)C(C)C)cc1 (mixture of isomers) [Compound 161, (2S,4R)-4-hydroxy-1-((R)-2-(3-(2-(6-(3-(2-hydroxyphenyl)-7H-pyrrolo[2,3-c]pyridazin-6-yl)-1-azaspiro[3.3]heptan-1-yl)ethoxy)isoxazol-5-yl)-3-methylbutanoyl)-N-((S)-1-(4-(4-methylthiazol-5-yl)phenyl)ethyl)pyrrolidine-2-carboxamide] | > 75% | > 10 nM | > 100 nM | A (“A” indicates maximum degradation ≥ 75%) |
| Cc1ncsc1-c1ccc([C@H](C)NC(=O)[C@@H]2C[C@@H](O)CN2C(=O)[C@@H](c2cc(OCCN3CC(c4[nH]c5nnc(-c6ccccc6O)cc5c4C4CC4)C3)no2)C(C)C)cc1 (racemic) [Compound 164, (2S,4R)-1-((R)-2-(3-(2-(3-(5-cyclopropyl-3-(2-hydroxyphenyl)-7H-pyrrolo[2,3-c]pyridazin-6-yl)azetidin-1-yl)ethoxy)isoxazol-5-yl)-3-methylbutanoyl)-4-hydroxy-N-((S)-1-(4-(4-methylthiazol-5-yl)phenyl)ethyl)pyrrolidine-2-carboxamide] | > 75% | > 10 nM | > 100 nM | A (“A” indicates maximum degradation ≥ 75%) |
| Cc1ncsc1-c1ccc([C@H](C)NC(=O)[C@@H]2C[C@@H](O)CN2C(=O)[C@@H](c2cc(OCCN3CC4(CNc5nnc(-c6ccccc6O)cc54)C3)no2)C(C)C)cc1 (racemic) [Compound 177, (2S,4R)-4-hydroxy-1-((R)-2-(3-(2-(3′-(2-hydroxyphenyl)-6′,7′-dihydrospiro[azetidine-3,5′-pyrrolo[2,3-c]pyridazin]-1-yl)ethoxy)isoxazol-5-yl)-3-methylbutanoyl)-N-((S)-1-(4-(4-methylthiazol-5-yl)phenyl)ethyl)pyrrolidine-2-carboxamide] | < 50% | > 1000 nM | – | B (“B” indicates maximum degradation ≥ 50%) |
| Cc1ncsc1-c1ccc([C@H](C)NC(=O)[C@@H]2C[C@@H](O)CN2C(=O)[C@@H](c2cc(N(C)CCN3CCc4[nH]c5nnc(-c6ccccc6O)cc5c4C3)no2)C(C)C)cc1 (racemic) [Compound 182, (2S,4R)-4-hydroxy-1-((R)-2-(3-((2-(3-(2-hydroxyphenyl)-5,7,8,9-tetrahydro-6H-pyrido[3′,4′:4,5]pyrrolo[2,3-c]pyridazin-6-yl)ethyl)(methyl)amino)isoxazol-5-yl)-3-methylbutanoyl)-N-((S)-1-(4-(4-methylthiazol-5-yl)phenyl)ethyl)pyrrolidine-2-carboxamide] | < 50% | – | – | C (“C” indicates maximum degradation < 50%) |
